Test system: tobacco line pACAG029#4
Conditions: in vivo
Excerpt: FIG. 36—tet-Inducible Herbicide Resistance: Spray Test of F1 Seedlings and Seeds of Tobacco Line pACAG029#4. Seedlings at different stages of development (1 and 2 weeks old), produced by germination in 2.5″×2.5″ pots with Metro mix, were used for assessing tet inducible herbicide resistance in a post-emergence test. For pre-emergency application, seeds were sown on the Metro mix right before PURSUIT®, application. 15-20 seeds were placed in each pot. Pots were sprayed with doxycycline premixed with PURSUIT®, each at different rates. The test was evaluated two weeks after the spray. Each pot in the figure represents a unique experiment in terms of the combination of chemical rates and the stage of seedling development. As shown in the figure, the rate of herbicide resistance directly corresponded with increased doxycycline application rates.
Induction of herbicide resistance in plants growing in soil has been investigated. Transgenic F1 heterozygous tobacco seeds of the line pACAG029#4 (this line has been shown elsewhere herein to provide the best repression/induction in tissue culture tests) ere used for the spray test. Seedlings at different stages of development (1 and 2 weeks old) produced by germination of seeds in 2.5″×2.5″ pots with Metro mix were used for post-emergence test. For pre-emergency application, seeds were sown on the Metro mix right before the application of herbicide. […]

C[C@H]1c2cccc(O)c2C(=O)C2=C(O)[C@]3(O)C(=O)C(C(N)=O)=C(O)[C@@H](N(C)C)[C@@H]3[C@@H](O)[C@@H]21 [doxycycline]
plant injury in spray test: caused some injury and stunted growth of plants

Reference: patent US20050034187A1, “Modified tet-inducible system for regulation of gene expression in plants” (priority 2000, published 2005)
